Six molecules from US20240182513A1, “SEPARATION OF METAL IONS FROM A SAMPLE USING GLYCOLIPIDS” (ARIZONA BOARD OF REGENTS ON BEHALF OF THE UNIVERSITY OF …, priority 2021, published 2024) can be followed below.

Some results are limits rather than exact numbers.

Experiment [1] can be described thus: Example 2.2 glycolipid facilitated chemical precipitation: lead. The conditions noted are these: for Pb^2+ maximum removal: precipitation without further treatment, maximum over molar ratios. How it is done: (§1) Nine different structural variants were selected to examine the effect of the headgroup and number and length of the hydrophobic tail(s) on glycolipids as a chemical precipitant (Table 6). These solutions were made in advance and stored at 4° C. for up to one month and brought to room temperature (˜25° C.) before each experiment.
(§2) Each metal (Pb^2+, La^3+, and Mg^2+) was evaluated separately with each of the nine glycolipids. […] The reactions were mixed in the order of nanopure water (≥18 MΩ-cm), glycolipid solution, then metal solution. The metal and glycolipid solutions were continuously stirred as they were aliquoted into the reaction tubes. All experiments were performed in triplicate.
(§3) The reaction tubes were rotated overnight (16 to 24 h) and then three samples were collected from each tube to measure metal removal from solution: (1) no further treatment; (2) an additional filtration step; and (3) an additional centrifugation step. Briefly, for the glycolipid adsorption treatment samples all tubes were vortexed for approximately 5 sec immediately before sampling to ensure that non-adsorbed glycolipid-metal complexes were mixed into the solution column. After mixing, 0.1 ml of the reaction solution was aliquoted into a dilution tube of 2% trace metal grade nitric acid for analysis. This sample measures the loss of metal due to the formation of hydrophobic scums or adsorbed complexes not attributable to the subsequent filtration or centrifugation treatments.
Samples for the filtration treatment were vortexed for 5 sec, then a 0.6 ml aliquot was collected with a 1 ml syringe. A GHP acrodisc disk filter (hydrophilic polypropylene membrane, 0.45 µm pore size, 25 mm disc diameter) from Pall Life Sciences (Port Washington, New York) or PTFE disk filters (hydrophobic polytetrafluoroethylene membrane, 0.45 μm pore size, 25 mm disc diameter) from Fisher Scientific (Waltham, MA) was then placed onto the end of the syringe and approximately 0.1 ml of filtrate was collected into a dilution tube for analysis. The centrifuge sample was collected by centrifuging the remaining reaction solution at 10,000 RCF for 15 min. Approximately 0.1 ml of the supernatant was aliquoted into a dilution tube for analysis. Following collection, the metal content in all samples was analyzed at the Arizona Laboratory for Emerging Contaminants (ALEC) at the University of Arizona using inductively coupled plasma mass spectrometry.
R was determined by comparing the solution metal concentration of the treatment sample (Cnt for the glycolipid with no further treatment sample, Cf for the glycolipid and filtration sample, and Cc for the glycolipid and centrifugation sample) to the solution metal concentration of a glycolipid-free control (Ci) that underwent the same handling and processing steps. The equations for these calculations are shown below: […]

Experiment [2] in a line: Example 2.2 glycolipid facilitated chemical precipitation: lanthanum. How it is done:
as §1, §2
as §3, with “This sample measures the loss of metal due to the formation of hydrophobic scums or adsorbed complexes not attributable to the subsequent filtration or centrifugation treatments.” left out
(§4) Samples for the filtration treatment were vortexed for 5 sec, then a 0.6 ml aliquot was collected with a 1 ml syringe. […] Following collection, the metal content in all samples was analyzed at the Arizona Laboratory for Emerging Contaminants (ALEC) at the University of Arizona using inductively coupled plasma mass spectrometry.
(§5) R was determined by comparing the solution metal concentration of the treatment sample (Cnt for the glycolipid with no further treatment sample, Cf for the glycolipid and filtration sample, and Cc for the glycolipid and centrifugation sample) to the solution metal concentration of a glycolipid-free control (Ci) that underwent the same handling and processing steps. […]

A short description of experiment [3]: Example 2.2 glycolipid facilitated chemical precipitation: magnesium. Here is the method:
Surfactants: Each of the solutions were made by dissolving a single glycolipid (GlycoSurf Inc., Salt Lake City, >95% purity) in nanopure water (≥18 MΩ-cm) then adjusting the pH to 6.90±0.05 with HNO3 and NaOH. Nine different structural variants were selected to examine the effect of the headgroup and number and length of the hydrophobic tail(s) on glycolipids as a chemical precipitant (Table 6). These solutions were made in advance and stored at 4° C. for up to one month and brought to room temperature (˜25° C.) before each experiment.
Metals: Three metals were tested for binding with the glycolipids: lead as […] (Fisher Scientific, Waltham, MA, 99% purity), lanthanum as La(NO3)3 6(H2O) (Sigma-Aldrich, St. Louis, MO, 99.99% purity), and magnesium as Mg(NO3)2 6(H2O) (Sigma-Aldrich, St. Louis, MO, 99% purity. Metal solutions (5 mM) were made using nanopure water (≥18 MΩ-cm) and were not pH balanced.
Each metal (Pb^2+, La^3+, and Mg^2+) was evaluated separately with each of the nine glycolipids. […]
as §4
as §5, with “Calculations: The efficiency of metal removal (R) was determined for each of the three treatments: Ra for the active mixing/adsorption treatment, Rf for the glycolipid and filtration treatment, and Rc for the glycolipid and centrifugation treatment. R” for “R”

A short description of experiment [4]: Ion flotation of uranium from Monument Valley groundwater with rhamnolipid collectors. The following applies: pH 6.5. From the text: Groundwater Collection and Analysis: The Monument Valley site is in Cane Valley, AZ, which is in northeastern Arizona. Groundwater was collected from monitoring well 662, which is down gradient of the source zone within the boundaries of the uranium groundwater plume. Samples were collected using dedicated bladder pumps and a QED Micropurge Controller. Groundwater was collected into a 50 L LDPE carboy (Thermo Scientific Nalgene) after the groundwater's pH and dissolved oxygen levels from the pump stabilized. The solution was stored as received, on the lab bench at ambient temperature until use.
For cation and anion analysis, groundwater was filtered ([…]) then diluted with 2% trace metals grade nitric acid (Fisher Scientific, Waltham, MA) in metal-free polypropylene 15 mL centrifuge tubes (VWR, Radnor, PA). Cations were analyzed using an Elan DRC-II inductively coupled plasma mass spectrometer (ICP-MS). Anions (F^−1, Cl^−1, Br^−1, NO2^−1, NO3^−1, […], and SO4^−2) were analyzed by using a Thermo Scientific Dionex ICS-6000 high-performance ion chromatography system. Data generated in this geochemical analysis were used to model uranium speciation using Visual MINTEQ 3.1. Only major solution constituents—those greater than 10 μg L^−1 for metals or 5 μmol L^−1 for anions—were included in the experiment, and carbonates were excluded because they are stripped from solution when nitrogen is sparged in the flotation process.
Chemicals: Both biosynthetic and synthetic monorhamnolipid collectors were tested for flotation efficiency. Biosynthetic monorhamnolipid tail lengths ‘m’ and ‘n’ range from 4 to 12 due to natural congener variation. Synthetic monorhamnolipids (Rha-C10-C10, Rha-C12-C12, or Rha-C14-C14) were synthesized with equal length tails where ‘m’=‘n’=6-14. The production and purification of biosynthetic monorhamnolipids (bio-mRL) from Pseudomonas aeruginosa ATCC 9027 has been previously described by Hogan et al., J. Hazard. Mater. 2017, 340, pp. 171-178. This organism exclusively produces monorhamnolipids—rhamnolipids with a single rhamnose sugar in the hydrophilic moiety of the molecule—as a congener mixture with varying hydrophobic tail lengths, in which the rhamnosyl-β-hydroxydecanoyl-β-hydroxydecanoate (C10-C10) dominates at 75-85 wt %. A molecular weight of 504 g mol^−1 (based on the C10-C10 structure) was used to estimate the bio-mRL concentration. Synthetic monorhamnolipids with decyl (Rha-C10-C10), dodecyl (Rha-C12-C12), and tetradecyl (Rha-C14-C14) hydrophobic moieties were prepared for comparative experiment. The molecular weights of the synthetic monorhamnolipids are 504.7, 560.8, and 616.9, respectively. All solutions were made using nanopure water (≥18 MΩ-cm). pH was adjusted with HNO3 and NaOH. […]

The mark [5] stands for this setting: precipitation without further treatment, 5:1 ratio.
[6] abbreviates: precipitation followed by centrifugation, molar ratio not stated / over ratios.
Setting [7] is: precipitation without further treatment, molar ratio not stated.

As for `CCCCCCCC(CC(=O)O)OC1O[C@H](CO)[C@H](O)[C@H](O)[C@H]1O` (some centres unmarked) [Gal-C10], the “Pb^2+ removal” value in experiment [1] (precipitation followed by filtration, 2:1 molar ratio) is recorded as 95.5%. Further, the “Pb^2+ maximum removal” value in experiment [1] turned out to be 38%.
For `CCCCCCCCCCCC(CC(=O)O)OC1O[C@H](CO)[C@H](O)[C@H](O)[C@H]1O` (some centres unmarked) [Gal-C14], in experiment [1], the “Pb^2+ maximum removal” value is 1.5%. In experiment [2] (setting [5]), the “La^3+ removal” value came to 57.9%. The “Mg^2+ removal” value in experiment [3] (setting [5]) is on record as 11.6%.
For `CCCCCCCC(CC(=O)O)OC1OC[C@@H](O)[C@H](O)[C@H]1O` (some centres unmarked) [Xyl-C10], in experiment [1] (setting [6]), the “Pb^2+ removal” value was at most 30%. Moreover, the “Pb^2+ maximum removal” value in experiment [1] is on record as “approximately 30%”. For the same molecule, the “La^3+ removal” value in experiment [2] (setting [6]) was at most 30%. For the same molecule, in experiment [3] (setting [6]), the “Mg^2+ removal” value was at most 30%.
On to `CCCCCCCCCCCC(CC(=O)O)OC(=O)CC(CCCCCCCCCCC)OC1OC[C@@H](O)[C@H](O)[C@H]1O` (some centres unmarked) [Xyl-C14-C14], for which the “Pb^2+ maximum removal” value in experiment [1] was “approximately 30%”. The “Mg^2+ removal” value in experiment [3] (setting [7]) amounted to 17.1%.
On to `CCCCCCCCCCCC(CC(=O)O)OC1OC[C@@H](O)[C@H](O)[C@H]1O` (some centres unmarked) [Xyl-C14], for which, in experiment [1], the “Pb^2+ maximum removal” value is reported as under 7%. Also, the “La^3+ removal” value in experiment [2] (setting [7]) is 42.6%.
In the case of `CCCCCCCC(CC(=O)O)OC(=O)CC(CCCCCCC)O[C@@H]1OC(C)[C@H](O)C(O)C1O[C@@H]1OC(C)[C@H](O)C(O)C1O` (some centres unmarked) [dirhamnolipid], the uranium removal percentage entry in experiment [4] is given as “about 75%”.
